Experimental data: patent US20190038759A1 (priority 2017, published 2019)
Converted amounts (≈) assume the structure as drawn. Read-outs that look alike come from different tables or passages of the source. Non-standard residues stand in square brackets, D forms with d. Residues, ends and D or L forms follow the SMILES beside them. *: point of attachment. Propyl(3-guanidino) = N=C(N)NCCC*; Hyp = O=C(O)[C@@H]1C[C@@H](O)CN1; Isobutyl = CC(C)C*

What was measured:
C. elegans = settings: 50 μM
E. coli (ATCC 25922) = format: cell-based; settings: at five times MIC
[1] = test system: S. aureus (ATCC 6538) biofilm; assay: Disruption of established biofilms, crystal violet; format: cell-based
Method: (§1) The compounds of the present disclosure were examined for their ability to disrupt bacterial biofilms using the microtiter dish biofilm formation assay. Briefly, overnight cultures of S. aureus (ATCC 6538) and S. epidermidis (ATCC 35984) were diluted 1:100 in TSB supplemented with 1% glucose. Overnight cultures of P. aeruginosa PAO1 and A. baumannii ATCC BAA-1605 were diluted 1:100 in M63 minimal medium supplemented with magnesium sulfate, glucose and casamino acids. Bacterial suspensions were incubated in 96-well plates at 37° C. for 24 hours. After removing media, wells were rinsed with PBS to remove planktonic bacteria before re-filling wells with fresh media. Compounds were added at specific concentrations and plates were incubated at 37° C. for 24 hours. After incubation, wells were washed and biofilms were stained with 0.5% (w/v) crystal violet for 30 minutes. The dye was solubilized with ethanol (95%) and the biofilm mass was quantified at OD595. Experiments were done in triplicate and repeated twice independently.

[2] = test system: tumor necrosis factor-α (TNF-α); assay: Anti-inflammatory effect on LPS stimulated macrophages, ELISA; format: cell-based; settings: 10 μM, LPS 150 ng/ml, J774A.1, six hours
Method: (§2) The anti-inflammatory effect of compounds on LPS stimulated macrophages, J774A.1 cells was investigated. Next, the cells were stimulated with LPS (150 ng/ml final concentration) in the presence of 10 μM of compounds. Cells that were stimulated with LPS alone and untreated cells served as controls. Cells were incubated for six hours at 37° C. and supernatants from each treatment were collected and stored at −20° C. until use. Cytokine detection of tumor necrosis factor-α (TNF-α) and interleukin-6 (IL-6) in supernatants was done using ELISA as described before following the manufacturer's instructions^24,25. Cytokine levels were expressed as percent change relative to the LPS-stimulated control, using triplicate samples for each treatment condition.

interleukin-6 (IL-6) = assay: as above; format: cell-based; settings: 10 μM, LPS 150 ng/ml, J774A.1, six hours
Method: as §2

[3] = test system: Colistin-resistant P. aeruginosa 1109; assay: microbe, parasite or virus in culture; format: cell-based; settings: Table 3, colistin-resistant P. aeruginosa 1109, read-out: Minimum inhibitory concentration (MIC)
[4] = test system: LPS-induced activation of the LAL enzyme (Limulus amoebocyte lysate); assay: LPS binding: inhibition of LPS-induced activation of LAL enzyme; format: biochemical; settings: at 10 (unit not given)
[5] = test system: Mycobacterium tuberculosis H37Ra
Shigella flexneri [6] = test system: Shigella flexneri
Mycobacterium smegmatis [7] = test system: Mycobacterium smegmatis
[8] = test system: intracellular pathogens in J774A.1 cells; format: cell-based; settings: infected J774A.1 macrophages
[9] = test system: A. baumannii ATCC BAA-1605 biofilm; assay: Disruption of established biofilms, crystal violet; format: cell-based; settings: 32 μM
Method: as §1

[10] = test system: P. aeruginosa PAO1 biofilm; assay: Disruption of established biofilms, crystal violet; format: cell-based; settings: 32 μM
Method: as §1

[11] = test system: S. epidermidis ATCC 35984 biofilm; assay: Disruption of established biofilms, crystal violet; format: cell-based; settings: S. epidermidis mature biofilm, 64 μM
Method: as §1

Brucella abortus [12] = test system: Brucella abortus
Salmonella enteritidis [13] = test system: Salmonella enteritidis
[14] = test system: Escherichia coli (ATCC 25922); assay: In vitro antimicrobial activity (MIC), OD-based growth; settings: ATCC25922
[15] = test system: Staphylococcus aureus (ATCC 25923); assay: as above; settings: ATCC25923
S. aureus (ATCC 6538) = assay: MIC, biofilm-forming clinical isolate, broth microdilution; format: cell-based; settings: Staphylococcus aureus, ATCC6538
Mycobacterium smegmatis [16] = assay: microbe, parasite or virus in culture; settings: Mycolicibacterium smegmatis
K. pneumoniae BAA-1706 = assay: MIC against clinical and drug-resistant isolates; format: cell-based; settings: Klebsiella pneumoniae, BAA1706; Table 3, K. pneumoniae BAA-1706; read-out: Minimum inhibitory concentration (MIC)
A. baumannii BAA-1605 = assay: MIC against clinical and drug-resistant isolates; format: cell-based; settings: Acinetobacter baumannii, BAA1605; Table 3, A. baumannii BAA-1605; read-out: Minimum inhibitory concentration (MIC)
[17] = test system: Methicillin-resistant S. aureus USA400; assay: MIC against clinical and drug-resistant isolates; format: cell-based; settings: Staphylococcus aureus; Table 3, MRSA USA400; read-out: Minimum inhibitory concentration (MIC)
[18] = test system: Vancomycin-resistant E. faecium ATCC 700221; assay: MIC against clinical and drug-resistant isolates; format: cell-based; settings: Enterococcus faecium, ATCC700221; Table 3, vancomycin-resistant E. faecium ATCC 700221; read-out: Minimum inhibitory concentration (MIC)
Salmonella enteritidis [19] = assay: microbe, parasite or virus in culture; settings: Salmonella enterica
[20] = test system: Mycobacterium tuberculosis H37Ra; assay: microbe, parasite or virus in culture
P. aeruginosa PAO1 = assay: MIC against clinical and drug-resistant isolates; format: cell-based; settings: Pseudomonas aeruginosa; Table 3, P. aeruginosa PAO1; read-out: Minimum inhibitory concentration (MIC)
Brucella abortus [21] = assay: microbe, parasite or virus in culture
Shigella flexneri [22] = assay: microbe, parasite or virus in culture
[23] = test system: S. epidermidis (ATCC 35984); assay: MIC, biofilm-forming clinical isolate, broth microdilution; format: cell-based; settings: Staphylococcus epidermidis, ATCC35984

## CC[C@H](C)[C@H](NC(=O)CN)C(=O)NCC(=O)N[C@@H](C)C(=O)N[C@H](C(=O)N[C@@H](CC(C)C)C(=O)N[C@@H](CCCCN)C(=O)N[C@H](C(=O)N[C@@H](CC(C)C)C(=O)N[C@H](C(=O)N[C@H](C(=O)NCC(=O)N[C@@H](CC(C)C)C(=O)N1CCC[C@H]1C(=O)N[C@@H](C)C(=O)N[C@@H](CC(C)C)C(=O)N[C@H](C(=O)N[C@@H](CO)C(=O)N[C@@H](Cc1c[nH]c2ccccc12)C(=O)N[C@H](C(=O)N[C@@H](CCCCN)C(=O)N[C@@H](CCCNC(=N)N)C(=O)N[C@@H](CCCCN)C(=O)N[C@@H](CCCNC(=N)N)C(=O)N[C@@H](CCC(N)=O)C(=O)N[C@@H](CCC(N)=O)C(N)=O)[C@@H](C)CC)[C@@H](C)CC)[C@@H](C)O)[C@@H](C)O)C(C)C)C(C)C [melittin]
C. elegans; after 3 days of treatment
  viability of C. elegans: no live worms
E. coli (ATCC 25922)
  release of beta-galactosidase from E. coli: substantial level of release

## CC(=O)NC[C@H]1CN(c2ccc(N3CCOCC3)c(F)c2)C(=O)O1 [linezolid]
[1]; S. aureus mature biofilm, 8 μM
  disruption of biofilm mass: approximately 50%

## colistin
[2]
  decrease of TNF-α levels: 97.53%±0.32
interleukin-6 (IL-6)
  decrease of IL-6 levels: 95.04%±0.56
[3]
  MIC: 128 µM
[4]
  inhibition of the LAL enzyme: 79.76%±4.6

## CN[C@H](CC(C)C)C(=O)N[C@H]1C(=O)N[C@@H](CC(N)=O)C(=O)N[C@H]2C(=O)N[C@H]3C(=O)N[C@H](C(=O)N[C@H](C(=O)O)c4cc(O)cc(O)c4-c4cc3ccc4O)[C@H](O)c3ccc(c(Cl)c3)Oc3cc2cc(c3O[C@@H]2O[C@H](CO)[C@@H](O)[C@H](O)[C@H]2O[C@H]2C[C@](C)(N)[C@H](O)[C@H](C)O2)Oc2ccc(cc2Cl)[C@H]1O [vancomycin]
[1]; S. aureus mature biofilm, 8 μM
  disruption of biofilm mass: approximately 50%

## CC(C)CO[C@@H]1C[C@@H](C(=O)N2C[C@H](OCCCNC(=N)N)C[C@H]2C(=O)N2C[C@H](OCCCNC(=N)N)C[C@H]2C(=O)N2C[C@H](OCC(C)C)C[C@H]2C(=O)N2C[C@H](OCCCNC(=N)N)C[C@H]2C(=O)N2C[C@H](OCCCNC(=N)N)C[C@H]2C(=O)N2C[C@H](OCC(C)C)C[C@H]2C(=O)N2C[C@H](OCCCNC(=N)N)C[C@H]2C(=O)N2C[C@H](OCCCNC(=N)N)C[C@H]2C(=O)N2C[C@H](OCC(C)C)C[C@H]2C(=O)N2C[C@H](OCCCNC(=N)N)C[C@H]2C(=O)N2C[C@H](OCCCNC(=N)N)C[C@H]2C(=O)N2C[C@H](OCC(C)C)C[C@H]2C(N)=O)N(C(=O)CN)C1 [Example P14LRR] (H-G[Hyp](Isobutyl)[Hyp](Propyl(3-guanidino))[Hyp](Propyl(3-guanidino))[Hyp](Isobutyl)[Hyp](Propyl(3-guanidino))[Hyp](Propyl(3-guanidino))[Hyp](Isobutyl)[Hyp](Propyl(3-guanidino))[Hyp](Propyl(3-guanidino))[Hyp](Isobutyl)[Hyp](Propyl(3-guanidino))[Hyp](Propyl(3-guanidino))[Hyp](Isobutyl)-NH2; N-terminus assumed)
[5]
  MIC: 16 µM (≈ 41.9 µg/mL)
Shigella flexneri [6]
  MIC: 8 µM (≈ 20.9 µg/mL)
[2]
  decrease of TNF-α levels: 68.4%±5.43
interleukin-6 (IL-6)
  decrease of IL-6 levels: 81.92%±0.78
Mycobacterium smegmatis [7]
  MIC: 8 µM (≈ 20.9 µg/mL)
[8]
  clearance of intracellular bacteria: neither kanamycin nor P14LRR is capable of effectively clearing intracellular bacteria
In vivo
  viability at 72 h, 50 µM: > 90%
[4]
  inhibition of the LAL enzyme: 71.2%±5
[9]
  reduction of biofilm mass: 30%
[10]
  disruption of biofilm: ineffective
[1]; S. aureus mature (24 hour) biofilm, 1 μM
  disruption of biofilm mass: not effective
[1]; S. aureus mature biofilm, 8 μM
  disruption of biofilm mass: not effective
[11]
  disruption of biofilm mass: approximately 50%
Brucella abortus [12]
  MIC: 16 µM (≈ 41.9 µg/mL)
Salmonella enteritidis [13]
  MIC: 32 µM (≈ 83.8 µg/mL)

## NC[C@H]1O[C@H](O[C@H]2[C@H](O)[C@@H](O[C@H]3O[C@H](CO)[C@@H](O)[C@H](N)[C@H]3O)[C@H](N)C[C@@H]2N)[C@H](O)[C@@H](O)[C@@H]1O [kanamycin]
C. elegans; glp-4(bn2) I, sek-1(km4), Caenorhabditis elegans, in vivo, 3 days
  viability of C. elegans: > 90%
[14]
  MIC: 2 µM (≈ 0.969 µg/mL)
[15]
  MIC: 2 µM (≈ 0.969 µg/mL)
[2]
  decrease of TNF-α levels: 11.41%±4.5
interleukin-6 (IL-6)
  decrease of IL-6 levels: 10%±3.30
S. aureus (ATCC 6538); Table 2, S. aureus clinical isolate that forms biofilms, read-out: MIC
  MIC: 4 µM (≈ 1.94 µg/mL)
S. aureus (ATCC 6538); Table 3, S. aureus ATCC 6538, read-out: Minimum inhibitory concentration (MIC)
  MIC: 2 µM (≈ 0.969 µg/mL)
Mycobacterium smegmatis [16]
  MIC: 8 µM (≈ 3.88 µg/mL)
K. pneumoniae BAA-1706
  MIC: 256 µM (≈ 124 µg/mL)
A. baumannii BAA-1605
  MIC: 128 µM (≈ 62 µg/mL)
[17]
  MIC: 4 µM (≈ 1.94 µg/mL)
[3]; Pseudomonas aeruginosa
  MIC: > 256 µM
[18]
  MIC: > 256 µM
Salmonella enteritidis [19]
  MIC: 16 µM (≈ 7.75 µg/mL)
[20]
  MIC: 2 µM (≈ 0.969 µg/mL)
P. aeruginosa PAO1
  MIC: > 256 µM
[1]; S. aureus mature biofilm, 8 μM
  disruption of biofilm mass: approximately 50%
Brucella abortus [21]
  MIC: 4 µM (≈ 1.94 µg/mL)
Shigella flexneri [22]
  MIC: 2 µM (≈ 0.969 µg/mL)
[23]; Table 2, S. epidermis clinical isolate that forms biofilms, read-out: MIC
  MIC: > 128 µM
[23]; Table 3, S. epidermidis ATCC 35984, read-out: Minimum inhibitory concentration (MIC)
  MIC: > 256 µM
